Reference: patent US8133471B2, “CLK-peptide and SLK-peptide” (New York University, priority 2003, dated 2012)
No end group written: not given here.

How the values were obtained:
[1] = tested on: denatured collagen type-IV; assay: 99Tc-CLK-Peptide competitive binding to denatured collagen type-IV (gamma counter); details: 99Tc-CLK-peptide 10 μg/ml, 50 μl/well; collagen 10 μg/ml
Procedure: FIG. 18 Inhibition of 99Tc-CLK-Peptide binding by unlabeled HUI77.
FIG. 19 Inhibition of Binding of Labeled CLK-Peptide to Denatured Collagen Type-IV by mAb HUI77. Denatured collagen type-IV (10 μg/ml) was coated on microtiter wells and binding of 99Tc-labeled CLK-Peptide in the presence or absence of unlabeled CLK-peptide or mAb HUI77 was measured. As shown in the figure, 99Tc-CLK-peptide (10 μg/ml, 50 μl/well) specifically binds to denatured collagen type-IV (first bar from left). […] 99Tc-CLK-peptide was also allowed to bind to denatured collagen type-IV in the presence or absence of Mab HUI77 (fourth and fifth bars from left). […] These findings provide further evidence that the CLK-peptide binds to a similar if not identical epitope recognized by Mab HUI77.
^99Tc-CLK-Peptide was used in competitive binding studies to further characterize the CLK epitope. To evaluate the ability of HUI77 to compete with binding to denatured type-IV collagen, type-IV collagen was denatured at 60° C. for 15 minutes at a concentration of […] in PBS. […] The supernatant, washes and collagen-coated wells were counted in a gamma counter (1 minute counts in duplicate).
In addition, denatured collagen type-IV (10 μg/ml) was coated on microtiter wells and binding of ^99Tc-labeled CLK-Peptide in the presence or absence of either unlabeled CLK-peptide or mAb HUI77 was measured using a gamma counter. […]

[2] = tested on: Human endothelial cells (HUVECs); assay: Endothelial cord formation in MATRIGEL; type: cell-based; details: 0 to 100 μg/ml, 24 hours
Procedure: FIG. 6 Effects of CLK Peptide on HUVEC Cord Formation in MATRIGEL®. MATRIGEL was added to 96-well plates and allowed to form three-dimensional gels. […] Representative photos were taken at a magnification of 100×. A. Untreated control. B. CLK 25 μg/ml. C. CLK 50 μg/ml. D. CLK 100 μg/ml. E. Control Peptide 100 μg/ml.
The role that the CLK cryptic collagen epitope plays in regulating endothelial cell morphogenesis and cord formation, processes important in angiogenesis, were investigated. MATRIGEL was diluted in M199 medium and 300 μl were added to the wells of a 48-well culture plate and allowed to polymerize. […] Endothelial morphogenesis and cord formation was monitored with an inverted microscope fitted with a 35 mm camera to document cord formation.

[3] = tested on: Human melanoma cells (M21); assay: M21 cell adhesion to denatured or native collagen type-IV or fibronectin (Example 9); type: cell-based; details: 0-100 μg/ml
Procedure: Non-tissue culture treated 48-well plates were coated with denatured collagen type-IV at 10 μg/ml. […] Cell adhesion was quantified by measuring the O.D. of eluted dye at 600 nm. Data bars represent the mean O.D.±standard deviation from triplicate wells. Assays were completed 2 to 3 times with similar results.
Non-tissue culture treated 48-well plates were coated with native collagen type-IV or fibronectin at 10 μg/ml. Human melanoma cells (M21) were allowed to attach to the coated wells in the presence or absence of CLK-Peptide or control peptide CTW at 0-100 μg/ml. Cell adhesion was quantified by measuring the O.D. of eluted dye at 600 nm. Data bars represent the mean O.D.±standard deviation from triplicate wells. Assays were completed 2 to 3 times with similar results. A. Adhesion to native collagen type-IV. B. Adhesion to Fibronectin.
Adhesion assays were performed to study the effects of CLK-peptide on tumor cell adhesion in vitro. Microtiter wells were coated with either native collagen type-IV or the control ECM protein fibronectin. Malignant melanoma cells (M21) were allowed to bind to the coated substrates in the presence or absence of CLK peptide or a control peptide, CTW.

[4] = tested on: Glioblastoma (GL261) cells; assay: GL261 glioblastoma cell adhesion to collagen type-IV; type: cell-based, murine; details: 50 μg/ml
Procedure: FIG. 21 Effects of CLK-Peptide on Glioblastoma Cell Adhesion to Denatured Collagen Type-IV.
To assess the functional significance of the HUI77/CLK cryptic epitope, cell adhesion assays using a glioblastoma cell line were performed. Microtiter plates were coated with denatured collagen type-IV (10 μg/ml). Glioblastoma (GL261) cells were resuspended in adhesion buffer in the presence or absence of CLK-peptide or a non-specific control (CTW) peptide (50 μg/ml) and the […] were incubated in the coated wells for 30 minutes. Non-attached cells were removed by washing, and attached cells quantified by staining with crystal violet.

Human melanoma cells M21 = assay: M21 melanoma cell adhesion to denatured collagen type-IV (Example 2); type: cell-based; details: M21 cells on denatured collagen type-IV; peptide 250 μg/ml
Description: FIG. 1 is a chart which illustrates M21 human melanoma cell adhesion to untreated denatured type-IV collagen (NT), CLK-peptide treated denatured collagen type-IV, SLK-peptide treated denatured collagen type-IV, and SDR-peptide treated denatured collagen type-IV.
SLK peptides bind to functional epitopes within denatured collagen type-IV that regulate cellular adhesion. Non-tissue culture treated 48-well plates were coated with denatured collagen type-IV. Human melanoma cells M21 (Scripps Research Institute, La Jolla, Calif.) were allowed to attach to the coated wells in the presence or absence of the synthetic peptides CLK, SLK, and SDR, each peptide was at a concentration of 250 μg/ml. SDR peptide is a commercially available peptide that was used as a control (QED Bioscience, Inc., San Diego, Calif.).
Human denatured collagen type-IV (25 μg/ml) was immobilized on 48-well nontissue culture treated plates. Wells were washed and incubated with 1% BSA (bovine serum albumin) in PBS (phosphate-buffered saline) for one hour at 37° C. Subconfluent […] were harvested, washed, and resuspended in adhesion buffer containing RPMI-1640 medium, 1 mM MgCl2, 0.2 mM MnCl2, and 0.5% BSA. […] Cell adhesion was quantified by measuring the optical density of eluted crystal violet at a wavelength of 600 nm.

With “99Tc-CLK-peptide: 99Tc-labeled CLK-Peptide used in competitive binding studies (CLKQNGGNFSLG; also: 99Tc-labeled, site not given here)” the “binding to denatured collagen type-IV” value [1] was “specifically bound”.

In the case of “CTWPRHHTTDALL (control peptide) [reference compound]”, the “effect on endothelial cord formation” value [2] is reported as “little if any effect”, the “effect on M21 cell adhesion to fibronectin” value [3] is reported as “Neither CLK-Peptide nor the control peptide had any effect” and the “effect on M21 cell adhesion to native triple helical collagen type-IV” value [3] is reported as “Neither CLK-Peptide nor the control peptide had any effect”. For the same substance, the “effect on M21 cell attachment to denatured collagen type-IV” value [3] was “no effect” and the “effect on glioblastoma cell adhesion to denatured collagen type-IV” value [4] was “no effect”.

“NH2-S-L-K-Q-N-G-G-N-F-S-L-C-COOH (H-SLKQNGGNFSLC-OH) [SLK-peptide]” was tested, and the “blockade of melanoma cell adhesion” value (Human melanoma cells M21) was “about 50%”.
